From patent US20040063686A1, “Carboxamide compounds and their use as antagonists of a human 11cby receptor” (priority 2000, published 2004)

Target: T1, 11CBy receptors (Homo sapiens, UniProt Q99705)
T1 construct: expressed in transfected cells; washed membranes
Assay: Radioligand binding assay, [125I]-Melanin Concentrating Hormone competition on membranes from HEK293 cells stably expressing 11CBy receptors
Conditions: [125I]-MCH 0.22 nM, 45 min at 37° C., pH 7.4, pKi calculated from IC50
Experimental: The activity of the compounds used in this invention may be assessed by competitive binding assays to 11CBy receptors, as follows:
Radioligand Binding Studies
Radioligand binding assays were carried out on well washed membranes from HEK293 cells stably expressing 11CBy receptors. […] Non-specific binding was defined using 0.1 mM Melanin Concentrating Hormone (obtained from Bachem). The test compounds were added at concentrations between […] and 10 pM in 10 concentration steps. Following incubation, the reaction was stopped by filtration through GF/B filters and washed with 4×1 ml of ice-cold 50 mM Tris buffer. Microscint 20 (Packard) was added to the filters and the radioactivity measured using a Packard TopCount.
Bound cpm in the presence of test compound was expressed as a fraction of the bound cpm in the absence of test compound and plotted against the concentration of compound. From this an IC50 was determined from which the pKi was calculated.

T1 sequence (Q99705 whole entry): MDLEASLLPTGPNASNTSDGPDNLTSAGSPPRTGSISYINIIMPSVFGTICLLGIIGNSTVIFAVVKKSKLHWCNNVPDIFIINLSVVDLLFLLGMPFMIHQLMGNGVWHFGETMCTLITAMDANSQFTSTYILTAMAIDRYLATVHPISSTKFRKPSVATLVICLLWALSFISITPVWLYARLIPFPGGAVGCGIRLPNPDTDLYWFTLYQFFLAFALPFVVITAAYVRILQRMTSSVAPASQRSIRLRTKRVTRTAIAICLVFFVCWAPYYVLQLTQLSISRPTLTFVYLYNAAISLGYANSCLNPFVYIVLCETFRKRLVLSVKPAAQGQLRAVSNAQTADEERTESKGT

Compound	pKi range
Biphenyl-4-carboxylic acid [4-((R)-diethylamino-hydroxy-propoxy)-3-methoxy-phenyl]-amide [Example G1]	7.1-7.4

Same assay, conditions: [125I]-MCH 0.22 nM, 45 min at 37° C., pH 7.4, pKi calculated from IC50, read-out: pKi range (converted)

Compound	Ki
COc1cc(NC(=O)c2ccc(C3CCCCC3)cc2)ccc1OC[C@@H]1CCCN1C [Example A48]	15.8 to 31.6 nM
COc1cc(NC(=O)c2ccc(-c3ccccc3)cc2Cl)ccc1OCCN(C(C)C)C(C)C [Example C8]	39.8 to 79.4 nM
CCN(CC)CCOc1ccc(N(C)C(=O)c2ccc(-c3ccccc3)cc2)cc1OC [Example E9, Biphenyl-4-carboxylic acid [4-(2-diethylamino-ethoxy)-3-methoxy-phenyl]-methyl-amide]	15.8 to 31.6 nM
COc1cc(NC(=O)c2ccc(-c3ccccc3)nc2)ccc1OCCN(C(C)C)C(C)C [Example F4]	39.8 to 79.4 nM
COc1cc(NC(=O)c2ccc(C3CCCCC3)cc2)ccc1N1CCN(C)CC1 [Example H1, 4-Cyclohexyl-N-[3-methoxy-4-(4-methyl-piperazin-1-yl)-phenyl]-benzamide]	39.8 to 79.4 nM
